Read-outs that look alike come from different tables or passages of the source.
Legend:
[1] = RPM extract 36 g/kg p.o., rat plasma, Mean ± SD, n = 6; ref Cheng et al., 2020; cited from earlier work
[2] = no source given; cited from earlier work
[3] = Tissue distribution of RPM constituents after oral RPM extract; conditions: Sprague-Dawley, rat, po, 18 g/kg
[4] = Plasma pharmacokinetics of RPM constituents after oral RPM extract
Source text: For the pharmacokinetic (PK) study, three groups (n = 6 each) of rats were orally administered RPM extract (6, 18, and 36 g/kg). In the plasma pharmacokinetics experiment, doses were 6, 18, and 36 g/kg for the single administration group and 18 g/kg for the continuous administration group. The doses were set at a subtoxic level ([Zhang et al., 2013]; [Wang et al., 2015]) to investigate the pharmacokinetic profiles of the constituents of RPM (36 g/kg group) and were approximately 60 times the upper dose (6 g/day) for humans recommended by the 2020 edition of Chinese Pharmacopoeia ([Chinese Pharmacopoeia Commission, 2020]), which was converted to a dose for rats based on body surface area conversion ([Reagan-Shaw et al., 2008]). In addition, the low and medium doses decreased in a certain proportion. Serial blood samples (∼120 μL; before dosing and at 5, 15, and 30 min, and 1, 2, 4, 6, 8, 12, and 24 h after administration) were collected in heparinized tubes from the orbital sinus under light isoflurane. The blood samples were centrifuged at 12000 g for 2 min, and the plasma fractions were decanted and frozen at −70°C until analysis.
Samples were prepared using the protein precipitation process. Rat plasma (50 μL) spiked with 10 μL of IS (puerarin 100 ng/ml) was extracted with 150 μL acetonitrile. After vortex shaking for 5 min and centrifugation at 14,000 g for 5 min, 150 μL of the organic layer was transferred to a clean tube and evaporated to dryness at 25°C under a stream of nitrogen. The residue was reconstituted in 50 μL of the initial mobile phase and subjected to another round of centrifugation at 14,000 g for 5 min, and 5 μL of the supernatant was injected for LC–MS/MS analysis.
The analysis was performed on an AB Sciex API 5500 Q Trap mass spectrometer (Toronto, Canada), interfaced with a Waters Acquity UPLC separation module.
(§1) The pharmacokinetic parameters, including the area under the plasma concentration-time curve from time zero to time t (AUC0-t) to time infinity (AUC0-∞), the time to reach the maximum plasma concentration (T max), the elimination half-time (t 1/2), and the maximum plasma concentration (C max), were calculated using the pharmacokinetic software Phoenix® WinNonlin®, version 7.0 (Scientific Consulting Inc., Apex, NC, United States). Data are expressed as the mean ± standard deviation (SD) for each group. The dose-exposure relationship was evaluated by the power function model combined with the confidence interval method ([Smith et al., 2000]; [Sethuraman et al., 2007]; [Hummel et al., 2009]). First, the administration dose, AUC0-∞ and C max were logarithmically transformed, and then a linear regression was performed to obtain the curve correlation coefficient (R^2), slope and 90% confidence interval (90% CI).

[5] = Biliary excretion in bile duct drained rats after oral RPM extract; conditions: single p.o. RPM extract 18 g/kg, rat bile
Procedure: (§2) For the excretion study, the rats were housed singly in metabolic cages with urine collection tubes kept at 4 °C during sample collection. Urine and fecal samples were collected at time intervals of 0–4, 4–8, 8–24, 24–32, and 32–48 h after a single dose of RPM extract at 18 g/kg and then weighed. Another six rats were anesthetized with pentobarbital, fixed in the supine position and subjected to bile duct drainage surgery, and the abdominal wound was sutured. Blank bile samples were collected before the administration of RPM. The rats were weighed, and the state of the rats was observed. Subsequently, they were orally administered 18 g/kg RPM extract. The bile samples were collected at time intervals of 0–1, 1–2, 2–4, 4–6, 6–8, 8–24, 24–32 and 32–48 h. The urine, feces, and bile samples were stored at −70°C until use.
(§3) Samples were prepared using the protein precipitation process. […] After vortex shaking for 5 min and centrifugation at 14,000 g for 5 min, 150 μL of the organic layer was transferred to a clean tube and evaporated to dryness at 25°C under a stream of nitrogen. The residue was reconstituted in 50 μL of the initial mobile phase and subjected to another round of centrifugation at 14,000 g for 5 min, and 5 μL of the supernatant was injected for LC–MS/MS analysis. […] Urine and bile samples were centrifuged at 4°C and 12,000 × g for 15 min. Fecal samples were homogenized in 0.9% saline and then centrifuged at 4°C and 12,000 × g for 15 min to gather the fecal homogenates. Tissue homogenate, urine, bile and fecal samples were subjected to a similar process as the rat plasma samples.
(§4) For the excretion study, 6 rats were placed in metabolic cage after orally administered with 18 g/kg RPM extract, and urine, feces samples were collected at time intervals of 0–4, 4–8, 8–24, 24–32, 32–48, 48–60, and 60–72 h. Another 6 rats were anesthetized with pentobarbital, fixed in the supine position and performed bile duct drainage operation, and the abdominal wound was sutured. […] Subsequently, they were orally administered with 18 g/kg RPM extract. The bile samples were collected at time intervals of 0–1, 1–2, 2–4, 4–6, 6–8, 8–24, 24–32 and 32–48 h. The urine, feces, and bile samples were stored at −70 °C until use.

[6] = Excretion into urine and feces and mass balance after oral RPM extract; conditions: for dose excreted: Sprague-Dawley, rat, po, mass balance, 18 g/kg RPM extract p.o.
Procedure: as §2, §3, §4

[7] = Dose-exposure relationship (power function model with confidence interval method)
Procedure: as §1

[8] = Sprague-Dawley, rat, plasma, po, 6 g/kg
[9] = Sprague-Dawley, rat, plasma, po, 18 g/kg

Question: Which results are given for `OC[C@H]1O[C@@H](Oc2c(O)cc(O)cc2/C=C/c2ccc(O)cc2)[C@H](O)[C@@H](O)[C@@H]1O` [TSG, 2,3,5,4′-teterahydroxystilbene-2-O-β-D-glucoside]?
Answer: AUC0-∞ [1]: 4,610 ± 1,430 nmol·h/L; AUC(0-t) [1]: 4,460 ± 1,360 nmol·h/L; Cmax [1]: 4.29 µM; logP [2]: 0.10; AUC(0-t) ([3]; both, bladder, AUC0-t in bladder, rat tissue: bladder, 18 g/kg RPM extract p.o., tissues collected at 5, 15, 60 min): 18.2 µM·h; AUC(0-t) ([3]; both, brain, AUC0-t in brain, rat tissue: brain, 18 g/kg RPM extract p.o., tissues collected at 5, 15, 60 min): 6.42 µM·h; AUC(0-t) ([3]; both, heart, AUC0-t in heart, rat tissue: heart, 18 g/kg RPM extract p.o., tissues collected at 5, 15, 60 min): 45.5 µM·h; AUC(0-t) ([3]; both, intestine, AUC0-t in intestine, rat tissue: intestine, 18 g/kg RPM extract p.o., tissues collected at 5, 15, 60 min): 71.7 µM·h; AUC(0-t) ([3]; both, kidney, AUC0-t in kidney, rat tissue: kidney, 18 g/kg RPM extract p.o., tissues collected at 5, 15, 60 min): 86.4 µM·h; AUC(0-t) ([3]; both, kidney, AUC0-t in the kidney, RPM extract 18 g/kg p.o., rat kidney, sampling 5, 15, 60 min): 86.4 µM·h; AUC(0-t) ([3]; both, liver, AUC0-t in liver, rat tissue: liver, 18 g/kg RPM extract p.o., tissues collected at 5, 15, 60 min): 114 µM·h; AUC(0-t) ([3]; both, lung, AUC0-t in lung, rat tissue: lung, 18 g/kg RPM extract p.o., tissues collected at 5, 15, 60 min): 35.1 µM·h; AUC(0-t) ([3]; both, spleen, AUC0-t in spleen, rat tissue: spleen, 18 g/kg RPM extract p.o., tissues collected at 5, 15, 60 min): 68.7 µM·h; AUC(0-t) ([3]; both, stomach, AUC0-t in stomach, rat tissue: stomach, 18 g/kg RPM extract p.o., tissues collected at 5, 15, 60 min): 47.9 µM·h; AUC(0-t) ([3]; female, ovary, AUC0-t in ovary, rat tissue: ovary, 18 g/kg RPM extract p.o., tissues collected at 5, 15, 60 min): 7.59 µM·h; AUC(0-t) ([3]; female, uterus, AUC0-t in uterus, rat tissue: uterus, 18 g/kg RPM extract p.o., tissues collected at 5, 15, 60 min): 12.2 µM·h; AUC(0-t) ([3]; male, testis, AUC0-t in testis, rat tissue: testis, 18 g/kg RPM extract p.o., tissues collected at 5, 15, 60 min): 7.77 µM·h; time at which C max was exhibited ([4]; RPM extract p.o., rat plasma): ≤ 20 min; AUC(0-inf) [4, 8]: 2.46 µM·h; AUC(0-t) [4, 8]: 2.38 µM·h; Cmax [4, 8]: 1.67 µM; MRT inf [4, 8]: 3.86 ± 1.17 h; Tmax [4, 8]: 0.24 ± 0.15 h; half-life [4, 8]: 6.53 ± 2.45 h; AUC(0-inf) [4, 9]: 4.2 µM·h; AUC(0-t) [4, 9]: 4.04 µM·h; Cmax [4, 9]: 3.26 µM; MRT inf [4, 9]: 4.37 ± 0.91 h; half-life [4, 9]: 6.54 ± 2.02 h; cumulative excretion into bile [5]: 410 ± 55.4 nmol; dose excreted ([6]; feces, Recovery in feces (%), feces collected 0–72 h): 24.6%; dose excreted ([6]; urine and feces, Recovery in urine and feces (%), urine plus feces, 0–72 h): 38.9%; dose excreted ([6]; urine, Recovery in urine (%), urine collected 0–72 h): 14.3%; cumulative excretion into feces ([6]; single p.o. RPM extract 18 g/kg, rat feces): 2778 ± 349 nmol; cumulative excretion into urine ([6]; single p.o. RPM extract 18 g/kg, rat urine): 1619 ± 208 nmol; Conclusion (dose-exposure relationship) ([7]; AUC0-∞ vs p.o. dose of RPM extract, critical interval 0.88–1.12): Nonlinear correlation; Conclusion (dose-exposure relationship) ([7]; C max vs p.o. dose of RPM extract, critical interval 0.80–1.20): Nonlinear correlation; Slope (90%CI) ([7]; log AUC0-∞ vs log p.o. dose of RPM extract, critical interval 0.88–1.12): 0.342 (0.204–0.479); Slope (90%CI) ([7]; log C max vs log p.o. dose of RPM extract, critical interval 0.80–1.20): 0.536 (0.422–0.649)
